Converted amounts (≈) assume the structure as drawn.
Tests used:
[1] = Renal tolerance of vancomycin regimen (serum creatinine); type: in vivo, New Zealand White rabbits
Protocol: Creatinine serum concentrations were measured in group A animals using a Fuji Dri-Chem analyzer (Fujifilm Corporation, Tokyo, Japan) with CRE-PIII slides, as per the manufacturer’s instructions.

MRSA strain ATCC 33591 = type: in vivo, New Zealand White rabbits; settings: surgical debridement at day 7 followed by 50 mg/kg IV vancomycin twice a day for 7 days, N = 5
Excerpt: Following general anesthesia, the animals were installed in a Class II biosafety cabinet. The operated leg was disinfected twice with 2% chlorhexidine gluconate alcohol solution (Qualiphar, Bornem, Belgium) and the leg was sterile draped. The joint was approached through a medial parapatellar incision. The medial meniscus was resected and 5 mm of the medial tibial plateau was removed using a high-speed burr. The cut height was confirmed using a spacer block. The bone surface was then further prepared using a custom tibial punch. After irrigation of the joint space with sterile saline, the final implants were impacted. The joint was then further irrigated with sterile saline. The joint capsule, subcutaneous tissues, and skin were closed separately with running sutures using a 3/0 polyester thread. The joints of groups B and C animals were inoculated by intra-articular injection of 100 μl of a 6.5 log10 CFU/ml MRSA suspension after the closure of the subcutaneous tissues. […] The wounds were then covered using an antiseptic spray and dressed.
Animals of groups C were operated on 1 week after the initial surgery. Following anesthesia, the operated leg was disinfected twice with 2% chlorhexidine gluconate alcohol solution and the leg was draped. The initial approach was re-used. Pus samples were collected immediately after the capsule was breached and stored on ice until analyzed. […]

[2] = tested on: Methicillin-Resistant Staphylococcus aureus strain ATCC 33591; settings: MRSA ATCC 33591; determined previously; cited from earlier work
Protocol: The Methicillin-Resistant Staphylococcus aureus strain ATCC 33591, previously used in our laboratory for biofilms models, was used. […] Bacteria were grown overnight on tryptic soy agar (TSA) plates from frozen stock. Some colonies were then suspended in sterile PBS, adjusted to an OD620 nm of 0.5 (∼8 log10 CFU), and diluted 1:10 in PBS. The bacterial suspension was stored at 4°C until inoculation (1.5–2 h). Serial dilutions of the bacterial inoculum were plated on TSA to confirm the bacterial inoculum.

[3] = Vancomycin serum pharmacokinetics and therapeutic monitoring in rabbits; settings: 50 mg/kg IV every 12 h, Roche VANC3 assay

CN[C@H](CC(C)C)C(=O)N[C@H]1C(=O)N[C@@H](CC(N)=O)C(=O)N[C@H]2C(=O)N[C@H]3C(=O)N[C@H](C(=O)N[C@H](C(=O)O)c4cc(O)cc(O)c4-c4cc3ccc4O)[C@H](O)c3ccc(c(Cl)c3)Oc3cc2cc(c3O[C@@H]2O[C@H](CO)[C@@H](O)[C@H](O)[C@H]2O[C@H]2C[C@](C)(N)[C@H](O)[C@H](C)O2)Oc2ccc(cc2Cl)[C@H]1O [vancomycin, Vancomycin]
renal toxicity ([1]; NZW rabbits, 50 mg/kg IV vancomycin twice a day): No renal toxicity was observed
serum creatinine concentrations throughout the experiment ([1]; group A NZW rabbits, 50 mg/kg IV vancomycin twice a day for 7 days, Fuji Dri-Chem analyzer): stable
bacterial counts in all samples (bone, pus, implant) except the joint capsule, group C versus group B (MRSA strain ATCC 33591; 5.5 log10 CFU MRSA inoculum, p < 0.0001): significantly reduced
mean difference in CFU counts in capsule samples, group C versus group B (MRSA strain ATCC 33591; not statistically significant, p = 0.35): 0.74 log10 CFU/g
MBEC [2]: > 1024 µg/mL
MIC [2]: 1 µg/mL (≈ 0.69 µM)
vancomycin serum concentration 12 h after the injections ([3]; group A NZW rabbits): ~0 µg/mL
AUC0–12 h following the first vancomycin injection ([3]; group A non-infected NZW rabbits, 1st injection, trapezoid rule, mean, N = 5, SD 15.79): 213.0 µg·h/mL

Source: article PMC9606572, “Development of an innovative in vivo model of PJI treated with DAIR” (Frontiers in Medicine, 2022)
